Measurements published in ChEMBL document CHEMBL4152297, “Ligand-selective small molecule modulators of the constitutively active vGPCR US28” (Eur J Med Chem, 2018).
The source made the active and inactive calls. No cut-off for these calls is given here.

Key:
[1] = Modulation of basal activity of HCMV US28 expressed in tetracyclin-induced HEK293 cells assessed as change in inositol phosphate accumulation using [3H]-myo-inositol by scintillation proximity assay; assay type: cell-based; settings: Human betaherpesvirus 5, HEK293
HEK293 [2] = assay: Modulation of basal activity of HCMV US28 expressed in tetracyclin-induced HEK293 cells assessed as change in inositol phosphate accumulation at 10 uM using [3H]-myo-inositol by scintillation proximity assay relative to control; assay type: cell-based; settings: Human betaherpesvirus 5
HEK293 [3] = assay: Displacement of [125I]-CCL2 from HCMV US28 expressed in HEK293 cells at 10 uM after 3 hrs by gamma counting method relative to control; assay type: cell-based; settings: Human betaherpesvirus 5
[4] = Displacement of [125I]-CCL2 from HCMV US28 expressed in HEK293 cells after 3 hrs by gamma counting method; assay type: cell-based, Human betaherpesvirus 5
[5] = Inverse agonist activity at HCMV US28 expressed in African green monkey COS7 cells assessed as inhibition of inositol phosphate accumulation using [3H]-myo-inositol after 90 mins by scintillation proximity assay; assay type: cell-based; settings: Human betaherpesvirus 5, COS-7
HEK293 [6] = assay: Displacement of [125I]-CX3CL1 from HCMV US28 expressed in HEK293 cells at 10 uM after 3 hrs by gamma counting method relative to control; assay type: cell-based; settings: Human betaherpesvirus 5
HEK293 [7] = assay: Displacement of [125I]-CCL4 from HCMV US28 expressed in HEK293 cells at 10 uM after 3 hrs by gamma counting method relative to control; assay type: cell-based; settings: Human betaherpesvirus 5
[8] = Modulation of basal activity of HCMV US28 delta300 mutant expressed in tetracyclin-induced HEK293 cells assessed as change in inositol phosphate accumulation using [3H]-myo-inositol by scintillation proximity assay; assay type: cell-based; settings: Human betaherpesvirus 5, HEK293
HEK293 [9] = assay: Modulation of basal activity of HCMV US28 delta300 mutant expressed in tetracyclin-induced HEK293 cells assessed as change in inositol phosphate accumulation at 10 uM using [3H]-myo-inositol by scintillation proximity assay relative to control; assay type: cell-based; settings: Human betaherpesvirus 5
[10] = Inverse agonist activity at HCMV US28 expressed in African green monkey COS7 cells assessed as inhibition of inositol phosphate accumulation using [3H]-myo-inositol by liquid scintillation counting method; assay type: cell-based; settings: Human betaherpesvirus 5, COS-7

| EC50 ([1]; read-out: EC50) | EC50 ([1]; read-out: pEC50 (converted)) | Structure (SMILES) | Efficacy (HEK293 [2]) | Efficacy (HEK293 [3]) | EC50 ([8]; read-out: EC50) | EC50 ([8]; read-out: pEC50 (converted)) | Efficacy (HEK293 [9]) | further results |
| --- | --- | --- | --- | --- | --- | --- | --- | --- |
| 0.033 µM | 0.0316 µM | Cc1cc2ncn(CC3CCN(CC(=O)NCc4ccc(F)cc4)CC3)c2cc1C | -16% | 25% |  |  |  | IC50 [4]: > 10 µM |
| 0.985 µM | 1 µM | Cc1nc2ccccc2n1CC1CCN(CC(=O)Nc2ccc(F)cc2F)CC1 | -39% | 10% |  |  |  | EC50 [5]: 1.76 µM; inhibition (HEK293 [6]): inactive; inhibition (HEK293 [7]): 10% |
|  |  | Cc1nc2ccccc2n1CC1CCN(CC(=O)Nc2cccnc2)CC1 |  | -2% |  |  |  |  |
| 0.344 µM | 0.316 µM | Cc1nc2ccccc2n1CC1CCN(CC(=O)Nc2cc(C(F)(F)F)ccc2Cl)CC1 | -43% | 24% |  |  |  | IC50 [4]: 2.99 µM; pIC50 [4]: 5.52 |
|  |  | COC(=O)c1ccc(NC(=O)CN2CCC(Cn3c(C)nc4ccccc43)CC2)cc1 |  | 32% | 0.884 µM | 0.794 µM | 70% | IC50 [4]: 9.56 µM; pIC50 [4]: 5.02 |
| 1.57 µM | 1.55 to 1.58 µM | O=C(CN1CCC(C(=O)N2CCN(c3ccc(F)cc3)CC2)CC1)Nc1ccc(F)cc1 | -32% |  |  |  |  |  |
| 9.37 µM | 10 µM | O=C(CN1CCN(Cc2nc3ccccc3n2Cc2ccccc2)CC1)Nc1ccccc1F | -20% |  |  |  |  |  |
|  |  | O=C(CN1CCN(Cc2csc3ccccc23)CC1)NC1CCCC1 |  |  | > 10 µM | < 10 µM | 56% |  |
|  |  | O=C(CN1CCC(Cn2cnc3ccccc32)CC1)Nc1nccs1 |  | 5% |  |  |  |  |
|  |  | Cn1c(CN2CCN(CC(=O)Nc3ccc(OC(F)(F)F)cc3)CC2)nc2ccccc21 |  | 7% | 3.36 µM | 3.16 µM | 59% |  |
|  |  | NC(=O)c1ccc(NC(=O)CN2CCC(Cn3cnc4ccccc43)CC2)cc1 |  | -4% |  |  |  |  |
|  |  | O=C(CN1CCN(Cc2csc(-c3ccccc3)n2)CC1)Nc1ccc(F)cc1 | -17% |  |  |  |  |  |
|  |  | Cc1cc(C)n(CC2CCN(CC(=O)N3CCc4ccccc43)CC2)n1 |  |  | > 10 µM | < 10 µM | 76% |  |
| 1.14 µM | 1.26 µM | O=C(CN1CCC(Cn2c(C(F)(F)F)nc3ccccc32)CC1)Nc1ccccc1C(F)(F)F | -28% |  |  |  |  |  |
|  |  | Cc1nc2ccccc2n1CC1CCN(CC(=O)NCCc2ccccc2)CC1 |  |  | 1.8 µM | 2 µM | 107% | IC50 [4]: 5.29 µM |
| 0.536 µM | 0.501 µM | O=C(CN1CCN(CN2C(=O)NC3(CCCCC3)C2=O)CC1)Nc1ccc(OC(F)(F)F)cc1 | -12% |  |  |  |  |  |
|  |  | CCc1ccc(-c2nc(CN3CCN(CC(=O)NC4CC4)CC3)cs2)cc1 |  |  | 11 µM | 10 µM | 51% |  |

| Structure (SMILES) | EC50 ([1]; read-out: EC50) | EC50 ([1]; read-out: pEC50 (converted)) | Efficacy (HEK293 [2]) | Efficacy (HEK293 [3]) | EC50 ([8]; read-out: EC50) | EC50 ([8]; read-out: pEC50 (converted)) | Efficacy (HEK293 [9]) | further results |
| --- | --- | --- | --- | --- | --- | --- | --- | --- |
| Cc1ccc(NC(=O)CN2CCC(Cn3cnc4ccccc43)CC2)cc1Cl | 0.254 µM | 0.251 µM | 21% | 71% | 0.182 µM | 0.2 µM | 50% | IC50 [4]: 1.52 µM; pIC50 [4]: 5.82 |
| Cc1cc2ncn(CC3CCN(CC(=O)Nc4ccccc4C(F)(F)F)CC3)c2cc1C | 80.7 µM | 79.4 µM | -12% |  | 19.8 µM | 20 µM | 54% |  |
| O=C(CN1CCC(Cn2cnc3ccccc32)CC1)N1CCN(c2ccccc2)CC1 | 3.89 µM | 3.98 µM | -27% |  | 4.8 µM | 5.01 µM | 77% |  |
| N#CC(CCCN1CCC(O)(c2ccc(Cl)cc2)CC1)(c1ccccc1)c1ccccc1 [BERLEX COMPOUND] | 10 µM | 10 µM | -31% | 60% | 0.86 µM | 0.794 µM | 99% | EC50 [10]: 3.5 µM; inhibition (HEK293 [6]): inactive; inhibition (HEK293 [7]): 65% |
